This is an account of results in ChEMBL document CHEMBL3046510, “Synthesis and Fungicidal Activities of 4,5-Dihydro-7H-pyrano[3,4-c]isoxazole Derivatives” (1999).

Holding throughout (format): functional
Assay [1] deals with Blumeria graminis. Briefly: Fungicidal activity against Blumeria graminis infected on foliar spray based compound pre-treated first-leaf stage 7 day old barley plants assessed as barley powdery mildew disease control level at 250 ppm measured 7 days post fungal exposure relative to untreated control.
The subject of assay [2] is Puccinia recondita. Briefly: Fungicidal activity against Puccinia recondita infected foliar spray based compound pre-treated first-leaf stage wheat plants assessed as wheat leaf rust disease control level at 250 ppm measured 10 days post fungal exposure relative to untreated control.
For assay [3], the system named is Phytophthora infestans. The assay can be described thus: Fungicidal activity against Phytophthora infestans zoosporangia infected on foliar spray based compound pre-treated 14 days old tomato plants assessed as tomato late blight disease control level at 250 ppm measured 4 days post fungal exposure relative to untreated control.
Assay [4] concerns Botrytis cinerea. The assay can be described thus: Fungicidal activity against Botryotinia fuckeliana infected foliar spray based compound pre-treated first-leaf stage cucumber plants assessed as cucumber gray mold disease control level at 250 ppm measured 4 to 5 days post fungal exposure relative to untreated control.
The subject of assay [5] is Rhizoctonia solani. The assay can be described thus: Fungicidal activity against Rhizoctonia solani infected on foliar spray based compound pre-treated third-leaf stage rice plants assessed as rice sheath blight disease control level at 250 ppm measured 5 days post fungal exposure relative to untreated control.
The test system of assay [6] is Puccinia recondita. Briefly: Fungicidal activity against Puccinia recondita infected foliar spray based compound pre-treated first-leaf stage wheat plants assessed as wheat leaf rust disease control level at 2 ppm measured 10 days post fungal exposure relative to untreated control.
Assay [7] has as its system Puccinia recondita. The assay can be described thus: Fungicidal activity against Puccinia recondita infected foliar spray based compound pre-treated first-leaf stage wheat plants assessed as wheat leaf rust disease control level at 10 ppm measured 10 days post fungal exposure relative to untreated control.
The subject of assay [8] is Puccinia recondita. The assay can be described thus: Fungicidal activity against Puccinia recondita infected foliar spray based compound pre-treated first-leaf stage wheat plants assessed as wheat leaf rust disease control level at 50 ppm measured 10 days post fungal exposure relative to untreated control.

On to `Clc1ccccc1C1OCCc2c1noc2COC1CCCCO1` (stereo not drawn), for which the Activity turned out to be 16% in assay [1]; 86% in assay [2]; 0% in assay [3]; 0% in assay [4]; 47% in assay [5].

Consider `OCc1onc2c1CCOC2c1ccccc1Cl` (stereo not drawn), for which the Activity was 0% in assay [1]; 10% in assay [2]; 0% in assay [3]; 0% in assay [4]; 0% in assay [5].

Consider `O=Cc1onc2c1CCOC2c1ccccc1Cl` (stereo not drawn), for which the Activity is recorded as 83% in assay [1]; 53% in assay [2]; 21% in assay [3]; 0% in assay [4]; 17% in assay [5].

As to `Clc1ccccc1C1OCCc2c1noc2CBr` (stereo not drawn), the Activity came to 16% in assay [1]; 97% in assay [2]; 7% in assay [3]; 52% in assay [4]; 41% in assay [5].

On to `ON=Cc1onc2c1CCOC2c1ccccc1Cl` (stereo not drawn), for which the Activity in assay [1] stood at 0%; in assay [2] it was 0%; in assay [3], 42%; in assay [4], 5%; in assay [5], 52%.

For the compound `CON=Cc1onc2c1CCOC2c1ccccc1Cl` (stereo not drawn), the Activity worked out at 41% in assay [1]; 0% in assay [2]; 50% in assay [3]; 0% in assay [4]; 29% in assay [5].

Consider `Clc1ccc(C2OCCc3c2noc3COC2CCCCO2)cc1` (stereo not drawn), for which the Activity in assay [1] was determined as 0%; in assay [2], 0%; in assay [3] it was 9%; in assay [4], 0%; in assay [5] it was 0%.

`OCc1onc2c1CCOC2c1ccc(Cl)cc1` (stereo not drawn): the Activity in assay [1] amounted to 3%; in assay [2], 0%; in assay [3] it was 2%; in assay [4], 0%; in assay [5], 0%.

In the case of `O=Cc1onc2c1CCOC2c1ccc(Cl)cc1` (stereo not drawn), the Activity in assay [1] is recorded as 0%; in assay [2], 0%; in assay [3], 19%; in assay [4] it was 30%; in assay [5], 0%.

As for `Clc1ccc(C2OCCc3c2noc3CBr)cc1` (stereo not drawn), the Activity in assay [6] is recorded as 50%; in assay [1], 50%; in assay [2] it was 100%; in assay [3], 22%; in assay [4], 0%; in assay [5] it was 0%. The Activity in assay [7] turned out to be 53%; in assay [8], 90%.

For `CCON=Cc1onc2c1CCOC2c1ccccc1Cl` (mixture of isomers), the Activity in assay [1] is 91%; in assay [2], 76%; in assay [3] it was 78%; in assay [4], 5%; in assay [5], 64%.

On to `C=CCON=Cc1onc2c1CCOC2c1ccccc1Cl` (mixture of isomers), for which the Activity in assay [1] is recorded as 80%; in assay [2], 46%; in assay [3], 14%; in assay [4], 0%; in assay [5] it was 17%.

For the compound `ON=Cc1onc2c1CCOC2c1ccc(Cl)cc1` (mixture of isomers), the Activity stood at 0% in assay [1]; 86% in assay [2]; 10% in assay [3]; 0% in assay [4]; 45% in assay [5].

For `CON=Cc1onc2c1CCOC2c1ccc(Cl)cc1` (mixture of isomers), the Activity was found to be 96% in assay [1]; 12% in assay [2]; 0% in assay [3]; 28% in assay [4]; 65% in assay [5].

As for `CCON=Cc1onc2c1CCOC2c1ccc(Cl)cc1` (mixture of isomers), the Activity in assay [1] stood at 81%; in assay [2], 52%; in assay [3] it was 14%; in assay [4] it was 10%; in assay [5], 55%.

For `C=CCON=Cc1onc2c1CCOC2c1ccc(Cl)cc1` (mixture of isomers), the Activity came out at 100% in assay [1]; 96% in assay [2]; 7% in assay [3]; 10% in assay [4]; 75% in assay [5].
